Measured values reported in the supplement of paper PMC10307832.

Columns and labels:
Assay in all cases: relative viability (nuclei count vs DMSO), 5 days (fraction); higher = more cells survive
[1] = compound: COc1ncc(-c2ccc3nccc(-c4ccnnc4)c3c2)cc1NS(=O)(=O)c1ccc(F)cc1F [Omipalisib] + CC(C)C[C@H](NC(=O)[C@H](Cc1ccccc1)NC(=O)c1cnccn1)B(O)O [Bortezomib] (partner 0.002 µM)
In short: (§1)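 The day after seeding in 1536-well plates, lung cancer cell lines were treated by pin tool with a single drug, or with a fixed anchor-drug dose together with five library-drug doses (not always all listed) in √10 steps. After 5 days, a combined fix-and-stain solution (final 0.05% Triton X-100, 1% formaldehyde, 1 ug/ml Hoechst) was added. Nuclei counted on 4× images gave relative viability as treated counts over vehicle counts, reported as the median of duplicate plates.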

[2] = compound: COc1ncc(-c2ccc3nccc(-c4ccnnc4)c3c2)cc1NS(=O)(=O)c1ccc(F)cc1F [Omipalisib] + COc1cc2c(Oc3ccc(NC(=O)C4(C(=O)Nc5ccc(F)cc5)CC4)cc3F)ccnc2cc1OCCCN1CCOCC1 [Foretinib] (partner 0.25 µM)
In short: as §1

[3] = compound: COc1ncc(-c2ccc3nccc(-c4ccnnc4)c3c2)cc1NS(=O)(=O)c1ccc(F)cc1F [Omipalisib] + COc1cccc2cc(-c3nc([C@H]4CC[C@H](C(=O)O)CC4)n4ncnc(N)c34)[nH]c12 [OSI-027] (partner 0.5 µM)
In short: as §1

[4] = compound: COc1ncc(-c2ccc3nccc(-c4ccnnc4)c3c2)cc1NS(=O)(=O)c1ccc(F)cc1F [Omipalisib] + CS(=O)(=O)CCNCc1ccc(-c2ccc3ncnc(Nc4ccc(OCc5cccc(F)c5)c(Cl)c4)c3c2)o1 [Lapatinib] (partner 2 µM)
In short: as §1

[5] = compound: COc1ncc(-c2ccc3nccc(-c4ccnnc4)c3c2)cc1NS(=O)(=O)c1ccc(F)cc1F [Omipalisib] + CS(=O)(=O)N1CCN(Cc2cc3nc(-c4cccc5[nH]ncc45)nc(N4CCOCC4)c3s2)CC1 [Pictilisib] (partner 1 µM)
In short: as §1

[6] = compound: COc1ncc(-c2ccc3nccc(-c4ccnnc4)c3c2)cc1NS(=O)(=O)c1ccc(F)cc1F [Omipalisib] + Cc1nc(Nc2ncc(C(=O)Nc3c(C)cccc3Cl)s2)cc(N2CCN(CCO)CC2)n1 [Dasatinib] (partner 0.075 µM)
In short: as §1

Cell Line	relative viability ([1]; first compound 0.0003 µM)	relative viability ([1]; first compound 0.003 µM)	relative viability ([1]; first compound 0.03 µM)	relative viability ([2]; first compound 0.0003 µM)	relative viability ([2]; first compound 0.003 µM)	relative viability ([2]; first compound 0.03 µM)	relative viability ([3]; first compound 0.0003 µM)	relative viability ([3]; first compound 0.003 µM)	relative viability ([3]; first compound 0.03 µM)	relative viability ([4]; first compound 0.0003 µM)	relative viability ([4]; first compound 0.003 µM)	relative viability ([4]; first compound 0.03 µM)	relative viability ([5]; first compound 0.0003 µM)	relative viability ([5]; first compound 0.003 µM)	relative viability ([5]; first compound 0.03 µM)	relative viability ([6]; first compound 0.0003 µM)	relative viability ([6]; first compound 0.003 µM)	relative viability ([6]; first compound 0.03 µM)
NCI-H2087	0.851	0.867	0.736	1.17	0.809	0.557	0.532	0.309	0.251	1.34	0.955	0.747	0.916	0.692	0.739	0.8	0.566	0.614
HARA	1.16	1.15	0.78	0.928	0.897	0.26	0.47	0.19	0.161	0.613	0.659	0.326	0.464	0.661	0.354	0.291	0.288	0.187
COR-L 105	0.89	0.656	0.411	1.17	1.01	0.896	0.767	0.549	0.328	0.37	0.334	0.313	0.349	0.356	0.299	0.301	0.287	0.186
NCI-H1944	–	–	–	0.811	0.457	0.31	0.396	0.256	0.201	0.785	0.493	0.385	0.363	0.301	0.28	0.194	0.17	0.156
LOU-NH91	0.543	0.517	0.453	0.901	0.838	0.564	0.705	0.58	0.503	0.708	0.53	0.511	0.511	0.487	0.441	0.521	0.381	0.355
EMC-BAC-2	0.968	0.862	0.747	0.91	0.637	0.482	0.347	0.266	0.239	0.726	0.611	0.608	0.514	0.465	0.432	0.261	0.231	0.21
BEN	0.773	0.527	0.46	0.518	0.403	0.538	0.311	0.271	0.291	0.566	0.444	0.364	0.513	0.378	0.412	0.277	0.3	0.307
EKVX	1.01	0.777	0.401	0.649	0.801	0.183	0.612	0.371	0.256	0.198	0.17	0.131	0.45	0.434	0.393	0.398	0.302	0.175
NCI-H1666	0.749	0.473	0.333	0.92	0.819	0.629	0.758	0.621	0.609	0.502	0.298	0.24	0.406	0.335	0.186	0.787	0.673	0.539
UMC-11	0.678	0.556	0.643	1.04	0.803	0.795	0.376	0.349	0.48	0.836	0.531	0.738	0.702	0.425	0.67	0.445	0.455	0.422
SK-MES-1	–	–	–	0.73	0.461	0.344	0.508	0.252	0.29	0.447	0.308	0.364	0.423	0.318	0.347	0.316	0.174	0.136
HCC-827	1.06	1.17	0.828	1.03	0.803	0.288	0.769	0.531	0.254	0.192	0.158	0.187	0.864	0.974	0.533	0.194	0.233	0.147
LK-2	–	–	–	0.832	0.553	0.484	0.212	0.13	0.173	0.698	0.502	0.306	0.446	0.306	0.445	0.231	0.151	0.169
ABC-1	0.324	0.299	0.246	1.05	0.824	0.561	0.518	0.382	0.283	0.994	1.02	0.769	0.72	0.628	0.533	0.424	0.499	0.35
NCI-H2085	0.953	0.98	0.517	0.95	0.884	0.26	0.776	0.349	0.315	0.838	0.571	0.382	0.416	0.474	0.436	0.258	0.194	0.227
NCI-H1792	0.872	0.927	0.398	–	–	–	0.653	0.404	0.224	0.864	0.88	0.301	0.281	0.278	0.129	0.566	0.521	0.21
HCC-44	0.874	0.694	0.513	–	–	–	0.524	0.344	0.338	1.09	0.96	0.432	0.579	0.464	0.441	–	–	–
